The text below walks through data of publication PMC8790780 (Chemistry (Weinheim an der Bergstrasse, Germany), 2021).

The target of one experiment is Hsp90β (Homo sapiens, UniProt P08238). Nature of the experiment: Fluorescence polarization. The format is binding. The settings on record: for Selectivity: Hsp90β versus Hsp90α, from FP IC50 values; for binding affinity for Hsp90β (in words): FP assay, SAR discussion.
Another experiment deals with Hsp90α (Homo sapiens, UniProt P07900). Nature of the experiment: Fluorescence polarization. The settings on record: for binding affinity for Hsp90α (in words): FP assay, SAR discussion. The format is binding. On the technique in general: In fluorescence polarisation assays a small probe gives low polarisation when free and higher when bound to something large.
A further experiment relates to HT29 cells. The experiment can be described thus: Cell viability assay. It counts as cell-based. The settings on record: Homo sapiens, HT-29, 72 h, read-out: HT29 [IC50 in μM].
The subject of a further experiment is NCI-H1299 cells. The experiment can be described thus: Cell viability assay. The format is cell-based. The settings on record: Homo sapiens, NCI-H1299, 72 h, read-out: NCI—H1299 [IC50 in μM].

Chain of Hsp90β (P08238 whole entry): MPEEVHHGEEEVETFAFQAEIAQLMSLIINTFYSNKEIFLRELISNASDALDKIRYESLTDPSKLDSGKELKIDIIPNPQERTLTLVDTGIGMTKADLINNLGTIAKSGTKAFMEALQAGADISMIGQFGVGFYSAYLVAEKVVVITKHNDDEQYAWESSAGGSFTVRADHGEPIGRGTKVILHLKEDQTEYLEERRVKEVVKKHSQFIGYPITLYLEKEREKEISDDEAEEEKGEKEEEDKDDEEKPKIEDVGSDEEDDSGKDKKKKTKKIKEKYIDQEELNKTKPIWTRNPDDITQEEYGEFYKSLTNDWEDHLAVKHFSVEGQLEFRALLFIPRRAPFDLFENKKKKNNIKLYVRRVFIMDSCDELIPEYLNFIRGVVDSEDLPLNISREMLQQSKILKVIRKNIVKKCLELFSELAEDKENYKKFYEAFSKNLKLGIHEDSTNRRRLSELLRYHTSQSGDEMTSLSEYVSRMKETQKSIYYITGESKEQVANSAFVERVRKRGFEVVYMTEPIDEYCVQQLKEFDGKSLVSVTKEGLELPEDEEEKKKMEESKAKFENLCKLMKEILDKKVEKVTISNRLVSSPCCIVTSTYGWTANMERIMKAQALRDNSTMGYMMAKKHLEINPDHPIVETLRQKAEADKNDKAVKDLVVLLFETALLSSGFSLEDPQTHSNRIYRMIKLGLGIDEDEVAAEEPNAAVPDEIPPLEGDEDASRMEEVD

What is called IC50 is the midpoint of a concentration-inhibition curve. `CC(C)c1cc(C(=O)N2Cc3ccccc3C2)c(O)c2cc[nH]c12` [Compound 18, (4-hydroxy-7-isopropyl-1H-indol-5-yl)(isoindolin-2-yl)methanone]: the IC50 against Hsp90β was > 100 µM; against Hsp90α, > 100 µM; in the experiment with HT29 cells, 62 ± 1.42 µM; with NCI-H1299 cells it was > 100 µM.
Turning to `CC(C)c1cc(C(=O)N2Cc3ccccc3C2)c(O)c2cn[nH]c12` [Compound 19, (4-Hydroxy-7-isopropyl-1H-indazol-5-yl)(isoindolin-2-yl) methanone], the concentration for half-maximal inhibition (IC50) at Hsp90β, against Hsp90α, with HT29 cells and in the experiment on NCI-H1299 cells was > 100 µM throughout.
On to `CC(C)c1cc(C(=O)N2Cc3ccccc3C2)c(O)c2[nH]nnc12` [Compound 20, (7-Hydroxy-4-isopropyl-1H-benzo[d][1,2,3]triazol-6-yl)(isoindolin-2-yl)methanone], for which the half-inhibitory concentration (IC50) was > 100 µM against Hsp90β, > 100 µM at Hsp90α, > 100 µM in the experiment on HT29 cells and 75 ± 21.4 µM with NCI-H1299 cells.
As for `CC(C)c1cc(C(=O)N2Cc3ccccc3C2)c(O)c2nc[nH]c12` [Compound 21, (4-Hydroxy-7-isopropyl-1H-benzo[d]imidazol-5-yl)(isoindolin-2-yl) methanone], the IC50 on Hsp90β came out at 0.45 ± 0.15 µM; on Hsp90α, 2.22 ± 0.19 µM; in the experiment on HT29 cells, 93.7 ± 2.67 µM; with NCI-H1299 cells it was 60 ± 10.5 µM. Moreover, the Selectivity at Hsp90β turned out to be 4.9.
In the case of `CC(C)c1cc(C(=O)N2Cc3ccccc3C2)c(O)c2c1CCC2=O` [Compound 29a, 7-hydroxy-6-(isoindoline-2-carbonyl)-4-isopropyl-2,3-dihydro-1H-inden-1-one], the 50% inhibitory concentration (IC50) is > 100 µM at Hsp90β, > 100 µM on Hsp90α, 63.5 ± 1.69 µM with HT29 cells and 67.6 ± 4.13 µM in the experiment with NCI-H1299 cells. Moreover, the “binding affinity for Hsp90β (in words)” value at Hsp90β was “did not exhibit affinity”. Besides, at Hsp90α, the “binding affinity for Hsp90α (in words)” value is “did not exhibit affinity”.
As for `CC(C)c1cc(C(=O)N2Cc3ccccc3C2)c(O)c2c1C(=O)CC2` [Compound 29b, 4-Hydroxy-5-(isoindoline-2-carbonyl)-7-isopropyl-2,3-dihydro-1H-inden-1-one], the IC50 on Hsp90β is 0.15 ± 0.04 µM; against Hsp90α it was 0.79 ± 0.14 µM; with HT29 cells, 21.7 ± 2.6 µM; with NCI-H1299 cells it was 10 ± 3.28 µM. In addition, the “binding affinity for Hsp90β (in words)” value on Hsp90β is “strong affinity”. Also, on Hsp90α, the “binding affinity for Hsp90α (in words)” value is recorded as “strong affinity”.
In the case of `CC(C)c1cc(C(=O)N2Cc3ccccc3C2)c(O)c2c1CCC2` [Compound 31, (4-hydroxy-7-isopropyl-2,3-dihydro-1H-inden-5-yl)(isoindolin-2-yl)methanone], the IC50 is 5.23 ± 0.13 µM against Hsp90β, > 100 µM against Hsp90α, 59.33 ± 0.18 µM with HT29 cells and 58.1 ± 0.34 µM in the experiment on NCI-H1299 cells. Besides, at Hsp90β, the “binding affinity for Hsp90β (in words)” value was “poor binding affinity”. In addition, the Selectivity on Hsp90β is given as > 19.1.
Turning to `CC(C)c1cc(C(=O)N2Cc3ccccc3C2)c(O)c2c1CC=C2` [Compound 32a, (4-Hydroxy-7-isopropyl-1H-inden-5-yl)(isoindolin-2-yl)methanone], the concentration for half-maximal inhibition (IC50) on Hsp90β was 8.29 ± 0.17 µM; against Hsp90α it was > 100 µM; in the experiment with HT29 cells, 51.8 ± 2.18 µM; in the experiment with NCI-H1299 cells it was 46.1 ± 1.11 µM. Moreover, the Selectivity at Hsp90β is reported as >12.
In the same order, the values of `CC(C)c1cc(C(=O)N2Cc3ccccc3C2)c(O)c2c1C=CC2` [Compound 32b, (7-hydroxy-4-isopropyl-1H-inden-6-yl)(isoindolin-2-yl)methanone] are 1.86 ± 0.11 µM, > 100 µM, 47.4 ± 2.94 µM, 41.4 ± 1.2 µM and > 53.
In the same order, the values of `CC1Cc2c(O)c(C(=O)N3Cc4ccccc4C3)cc(C(C)C)c2C1=O` (stereo not drawn) [Compound 40, 4-Hydroxy-5-(isoindoline-2-carbonyl)-7-isopropyl-2-methyl-2,3-di-hydro-1H-inden-1-one] are 8.83 ± 1.48 µM, > 100 µM, 60.2 ± 0.63 µM, 59 ± 1.78 µM and >11.
With `CC(C)c1cc(C(=O)N2Cc3ccccc3C2)c(O)c2c1C(=O)C(C)(C)C2` [Compound 41, 4-hydroxy-5-(isoindoline-2-carbonyl)-7-isopropyl-2,2-dimethyl-2,3-dihydro-1H-inden-1-one], the 50% inhibitory concentration (IC50) on Hsp90β was > 100 µM; on Hsp90α, > 100 µM; with HT29 cells, 54.3 ± 1.32 µM; in the experiment on NCI-H1299 cells, 51.31 ± 0.15 µM. In addition, the “binding affinity for Hsp90β (in words)” value on Hsp90β was “not tolerated”.
With `CC(C)c1cc(C(=O)N2Cc3ccccc3C2)c(O)c2c1C(=O)C(F)C2` (stereo not drawn) [Compound 42, 2-fluoro-4-hydroxy-5-(isoindoline-2-carbonyl)-7-isopropyl-2,3-di-hydro-1H-inden-1-one], the concentration for half-maximal inhibition (IC50) amounted to 0.34 ± 0.01 µM against Hsp90β, 2.42 ± 0.07 µM against Hsp90α, 58.3 ± 1.51 µM in the experiment on HT29 cells and 20.6 ± 0.28 µM in the experiment with NCI-H1299 cells. In addition, the Selectivity at Hsp90β was found to be 7.1.
On to `CC(C)c1cc(C(=O)N2Cc3ccccc3C2)c(O)c2c1C(=O)C(F)(F)C2` [Compound 43, 2,2-difluoro-4-hydroxy-5-(isoindoline-2-carbonyl)-7-isopropyl-2,3-dihydro-1H-inden-1-one], for which the half-inhibitory concentration (IC50) on Hsp90β was 18.2 ± 1.3 µM; at Hsp90α it was > 100 µM; with HT29 cells it was > 100 µM; in the experiment with NCI-H1299 cells, > 100 µM. The “binding affinity for Hsp90β (in words)” value at Hsp90β was “poor affinity”. In addition, the Selectivity at Hsp90β was >5.
On to `CC(C)c1cc(C(=O)N2Cc3ccccc3C2)c(O)c2c1C(=O)C(C(F)(F)F)C2` (stereo not drawn) [Compound 44, 4-Hydroxy-5-(isoindoline-2-carbonyl)-7-isopropyl-2-(trifluoromethyl)-2,3-dihydro-1H-inden-1-one], for which the IC50 on Hsp90β is 19.6 ± 2.2 µM; against Hsp90α, > 100 µM; with HT29 cells, 75.29 ± 0.66 µM; in the experiment with NCI-H1299 cells it was 57.8 ± 8.01 µM. In addition, the Selectivity at Hsp90β is >5.
Turning to `CC(C)c1cc(C(=O)N2Cc3ccccc3C2)c(O)c2c1C(=C(F)F)CC2` [Compound 45, (1-(difluoromethylene)-4-hydroxy-7-isopropyl-2,3-dihydro-1H-inden-5-yl)(isoindolin-2-yl)methanone], at Hsp90β, the half-inhibitory concentration (IC50) is > 100 µM and the “binding affinity for Hsp90β (in words)” value is on record as “did not display good affinity”. Moreover, on Hsp90α, the IC50 was > 100 µM and the “binding affinity for Hsp90α (in words)” value is reported as “did not display good affinity”.
With `C=C1Cc2c(O)c(C(=O)N3Cc4ccccc4C3)cc(C(C)C)c2C1=O` [Compound 46, 4-hydroxy-5-(isoindoline-2-carbonyl)-7-isopropyl-2-methylene-2,3-dihydro-1H-inden-1-one], the IC50 was > 100 µM against Hsp90β, > 100 µM against Hsp90α, 66.5 ± 1.35 µM with HT29 cells and 68.2 ± 1.2 µM with NCI-H1299 cells. The “binding affinity for Hsp90β (in words)” value on Hsp90β is “did not display good affinity”. The “binding affinity for Hsp90α (in words)” value on Hsp90α was “did not display good affinity”.
Consider `CC(C)c1cc(C(=O)N2Cc3ccccc3C2)c(O)c2c1C(=O)C=C2` [Compound 50, 4-hydroxy-5-(isoindoline-2-carbonyl)-7-isopropyl-1H-inden-1-one], for which the IC50 at Hsp90β amounted to 6.75 ± 0.01 µM; against Hsp90α, 43.1 ± 11.5 µM; in the experiment on HT29 cells it was 2.33 ± 0.48 µM; in the experiment on NCI-H1299 cells it was 1.53 ± 0.16 µM.
Consider `CC(C)c1cc(C(=O)N2Cc3ccccc3C2)c(O)c2c1C(=NO)CC2` [Compound 51, (4-hydroxy-1-(hydroxyimino)-7-isopropyl-2,3-dihydro-1H-inden-5-yl)(isoindolin-2-yl)methanone], for which the half-maximal inhibitory concentration (IC50) was > 100 µM at Hsp90β, > 100 µM against Hsp90α, 51.2 ± 2.23 µM in the experiment on HT29 cells and 33.7 ± 1.78 µM in the experiment with NCI-H1299 cells.
For the compound `CON=C1CCc2c(O)c(C(=O)N3Cc4ccccc4C3)cc(C(C)C)c21` [Compound 52, (4-hydroxy-7-isopropyl-1-(methoxyimino)-2,3-dihydro-1H-inden-5-yl)(isoindolin-2-yl)methanone], the half-maximal inhibitory concentration (IC50) on Hsp90β is > 100 µM; against Hsp90α it was > 100 µM; with HT29 cells it was 51.2 ± 2.23 µM; in the experiment with NCI-H1299 cells, 86 ± 7.7 µM.
In the case of `CC(C)c1cc(C(=O)N2Cc3ccccc3C2)c(O)c2c1CCCC2=O` [Compound 59a, 8-hydroxy-7-(isoindoline-2-carbonyl)-5-isopropyl-3,4-dihydronaphthalen-1(2H)-one], the concentration for half-maximal inhibition (IC50) was > 100 µM at Hsp90β, > 100 µM at Hsp90α, 51.2 ± 2.23 µM in the experiment with HT29 cells and 83.3 ± 1.31 µM with NCI-H1299 cells.
With `CC(C)c1cc(C(=O)N2Cc3ccccc3C2)c(O)c2c1C(=O)CCC2` [Compound 59b, 5-hydroxy-6-(isoindoline-2-carbonyl)-8-isopropyl-3,4-dihydronaphthalen-1(2H)-one], the IC50 against Hsp90β and against Hsp90α was > 100 µM each time.
